{"source": "patent US6127131A", "about": "(Synaptic Pharmaceutical Corporation, priority 1998, dated 2000)", "key": {"[1]": {"target": "T1, glycine transporter encoded by rB20a (Rattus norvegicus, UniProt P28572)", "T1 construct": "expressed in transfected cells; host or cells: COS-7 cells, transient transfection with pSVL-rB20a", "T1 sequence (P28572 1-638)": "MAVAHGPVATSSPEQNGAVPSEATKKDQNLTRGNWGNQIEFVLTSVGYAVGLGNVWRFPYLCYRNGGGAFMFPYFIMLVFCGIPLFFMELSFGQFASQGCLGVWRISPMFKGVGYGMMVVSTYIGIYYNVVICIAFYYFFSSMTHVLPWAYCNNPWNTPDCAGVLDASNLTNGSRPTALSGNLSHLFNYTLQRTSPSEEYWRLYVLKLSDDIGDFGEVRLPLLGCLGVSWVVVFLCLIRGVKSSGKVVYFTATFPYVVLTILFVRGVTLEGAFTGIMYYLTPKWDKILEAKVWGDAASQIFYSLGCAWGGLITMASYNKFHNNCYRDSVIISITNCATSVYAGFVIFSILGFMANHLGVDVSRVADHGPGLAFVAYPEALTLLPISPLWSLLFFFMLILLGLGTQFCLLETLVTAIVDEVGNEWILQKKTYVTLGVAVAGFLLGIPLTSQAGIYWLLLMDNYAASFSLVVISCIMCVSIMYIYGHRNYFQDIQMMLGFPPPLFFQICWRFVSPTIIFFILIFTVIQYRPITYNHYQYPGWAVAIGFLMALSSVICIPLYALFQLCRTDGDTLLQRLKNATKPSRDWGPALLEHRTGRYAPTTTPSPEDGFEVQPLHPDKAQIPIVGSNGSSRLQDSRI", "assay": "Competition for [3H]glycine uptake by COS-7 cells transfected with rB20a", "assay_type": "cell-based", "details": "agents at 1 mM (Table 1)", "experimental": "These two clones were constructed into a full-length clone (designated rB20a) by ligation at their internal Nco I sites and then cloned into the eukaryotic expression vector pSVL (Pharmacia LKB Biotechnology, Piscataway, N.J.). Transient transfection of COS cells was carried out using DEAE-dextran with DMSO according to the method of Lopata et al. (1984) with minor modifications. COS cells were grown in six-well plates (37° C.,5%CO2) in high glucose Dulbecco's modified Eagle medium supplemented with 10% bovine calf serum, 100 U/ml penicillin G, and 100 μg/ml streptomycin sulfate. Cells were routinely used two days after transfection for transport studies.\n(§1) Plates were incubated at 37° C. for 10 or 20 minutes, then washed rapidly 3× with HBS. Cells were solubilized with 0.05% sodium deoxycholate/0.1N NaOH (1 ml/well), 0.5 ml aliquots were removed, neutralized with 1N HCl, and radioactivity was determined by scintillation counting. Protein was quantified in an aliquot of the solubilized cells with the Bradford Reagent (Biorad, Richmond, Calif.), according to the manufacturer's directions.\nNonspecific uptake was determined with 1 mM"}, "[2]": {"target": "T2, transporter encoded by rB20a (Rattus norvegicus, UniProt P28572)", "T2 sequence (P28572 1-638)": "T1 sequence (P28572 1-638)", "assay": "Screen of COS cells transfected with rB20a for transport of radiolabeled neurotransmitters and amino acids", "assay_type": "cell-based", "details": "data not shown", "experimental": "as §1"}}, "data": [{"compound": "N[C@@H](CO)C(=O)O", "note": "[L-serine]", "values": [{"measurement": "competition for [3H]glycine uptake (in words)", "setting": "[1]", "result": "Neither α-(methylamino) isobutyric acid (1 mM), a substrate for system A, nor L-serine (1 mM), a substrate for system ASC, significantly competed"}]}, {"compound": "CNC(C)(C)C(=O)O", "note": "[α-(methylamino) Isobutyric acid]", "values": [{"measurement": "competition for [3H]glycine uptake (in words)", "setting": "[1]", "result": "Neither α-(methylamino) isobutyric acid (1 mM), a substrate for system A, nor L-serine (1 mM), a substrate for system ASC, significantly competed"}]}, {"compound": "[^3 H]glutamate", "values": [{"measurement": "effect of rB20a expression on uptake of the radiolabeled substrate", "setting": "[2]", "result": "did not significantly alter"}]}]}
